Biological target: human c-MER catalytic domain (Homo sapiens (Human), UniProt Q12866)
Assay: TR-FRET Kinase Activity Biochemical Assay (LanthaScreen)
Details: 10 uM ATP, 1 hour, kinase not given
Excerpt: For the SAR (structure-activity relationship) and compound screening, LanthaScreen™ TR-FRET (Time-Resolved fluorescence energy transfer) assay was employed using the phospho-tyrosine specific Terbium (Tb)-labelded antibody with a fluorescein labeled poly-GT (glutamate-tyrosine) as a substrate. Upon excitation at 340 nm by UV, the energy from Tb donor of the antibody is transferred to the fluorescein of the phosphorylated poly GT substrate, and fluorescein emits light at 520 nm. The ratio between the intensity of […] was used to quantify the level of kinase activity. The recombinant proteins of human c-MER and AXL catalytic domains, Fluorescein-labeled poly-GT substrate, Tb-labeled anti-phosphorylated tyrosine antibodies, the kinase assay buffer, and 0.5M EDTA solution were purchased (Life technologies, USA). The TR-FRET assays were carried out in the white low volume 384-well plate (Corning, USA). […] 10 mM EDTA was added to terminate the enzyme reaction, and the level of phosphorylation of poly-GT substrate was determined following 30 min incubation with 2 nM Tb-labeled antibody. The fluorescence intensity was measured with Envision™ plate reader (PerkinElmer, USA).

Sequence of human c-MER catalytic domain (Q12866 587-858): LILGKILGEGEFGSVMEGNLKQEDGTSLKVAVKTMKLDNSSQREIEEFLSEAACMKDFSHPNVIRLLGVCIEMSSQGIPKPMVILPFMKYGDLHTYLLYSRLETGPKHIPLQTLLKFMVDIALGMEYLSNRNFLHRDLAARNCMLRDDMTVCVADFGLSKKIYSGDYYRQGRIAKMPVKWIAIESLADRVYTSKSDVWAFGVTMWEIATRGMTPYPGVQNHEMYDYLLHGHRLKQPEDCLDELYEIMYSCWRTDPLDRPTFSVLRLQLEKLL

Structure (SMILES)	IC50
Cn1cc(-c2cnc(N)c(C(=O)N[C@@H]3CCN(Cc4ccccc4-c4cccc(CO)c4)C3)c2)cn1 [Example 247, (R)-2-amino-N-(1-((3′-(hydroxymethyl)-[1,1′-biphenyl]-2-yl)methyl)pyrrolidin-3-yl)-5-(1-methyl-1H-pyrazol-4-yl)nicotinamide]	100 to 1000 nM
Cn1cc(-c2cnc(N)c(C(=O)N[C@@H]3CCN(C(=O)c4cccc(-c5cccc(N)c5)c4)C3)c2)cn1 [Example 457, (R)-2-amino-N-(1-(3′-amino-[1,1′-biphenyl]-3-carbonyl)pyrrolidin-3-yl)-5-(1-methyl-1H-pyrazol-4-yl)nicotinamide]	> 1000 nM
Cn1cc(-c2cnc(N)c(C(=O)N[C@@H]3CCN(C(=O)Oc4cccc(-c5cnn(CCN6CCCC6)c5)c4)C3)c2)cn1 [Example 286, 3-(1-(2-(pyrrolidin-1-yl)ethyl)-1H-pyrazol-4-yl)phenyl (R)-3-(2-amino-5-(1-methyl-1H-pyrazol-4-yl)nicotinamido)pyrrolidine-1-carboxylate]	100 to 1000 nM
Cc1nn(-c2ccc(N)cc2)c(C)c1-c1ccc(C(=O)N2CC[C@@H](NC(=O)c3cc(-c4cnn(C)c4)cnc3N)C2)cc1 [Example 520, (R)-2-amino-N-(1-(4-(1-(4-aminophenyl)-3,5-dimethyl-1H-pyrazol-4-yl)benzoyl)pyrrolidin-3-yl)-5-(1-methyl-1H-pyrazol-4-yl)nicotinamide]	100 to 1000 nM
CC(C)(c1ccc(-c2cnc(N)c(C(=O)N[C@@H]3CCN(C(=O)c4ccc(-c5ccccc5)cc4)C3)c2)cc1)N1CCNCC1 [Example 564, (R)—N-(1-([1,1′-biphenyl]-4-carbonyl)pyrrolidin-3-yl)-2-amino-5-(4-(2-(piperazin-1-yl)propan-2-yl)phenyl)nicotinamide]	< 10 nM
Cn1cc(-c2cnc(N)c(C(=O)N[C@@H]3CCN(C(=O)c4cccc(C5=CCCCC5)c4)C3)c2)cn1 [Example 475, (R)-2-amino-5-(1-methyl-1H-pyrazol-4-yl)-N-(1-(2′,3′,4′,5′-tetrahydro-[1,1′-biphenyl]-3-carbonyl)pyrrolidin-3-yl)nicotinamide]	> 1000 nM
Cn1cc(-c2cnc(N)c(C(=O)N[C@@H]3CCN(C(=O)c4ccc5[nH]c6c(c5c4)CCC6)C3)c2)cn1 [Example 503, (R)-2-amino-5-(1-methyl-1H-pyrazol-4-yl)-N-(1-(1,2,3,4-tetrahydrocyclopenta[b]indole-7-carbonyl)pyrrolidin-3-yl)nicotinamide]	> 1000 nM
Cn1cc(-c2cnc(N)c(C(=O)N[C@@H]3CCN(C(=O)Oc4cccc(-c5cccc(CN6CCC[C@@H](N)C6)c5)c4)C3)c2)cn1 [Example 338, 3′-(((R)-3-aminopiperidin-1-yl)methyl)-[1,1′-biphenyl]-3-yl (R)-3-(2-amino-5-(1-methyl-1H-pyrazol-4-yl)nicotinamido)pyrrolidine-1-carboxylate]	10 to 100 nM
CN1CCN(Cc2ccc(-c3cnc(N)c(C(=O)N[C@@H]4CCN(C(=O)Oc5ccccc5)C4)c3)cc2)CC1 [Example 118, phenyl (R)-3-(2-amino-5-(4-((4-methylpiperazin-1-yl)methyl)phenyl)nicotinamido)pyrrolidine-1-carboxylate]	100 to 1000 nM
Cn1cc(-c2cnc(N)c(C(=O)N[C@@H]3CCN(C(=O)Oc4cccc(-c5ccc(CCC(=O)O)cc5)c4)C3)c2)cn1 [Example 276, (R)-3-(3′-((3-(2-amino-5-(1-methyl-1H-pyrazol-4-yl)nicotinamido)pyrrolidine-1-carbonyl)oxy)-[1,1′-biphenyl]-4-yl) propanoic acid]	100 to 1000 nM
Cn1cc(-c2cnc(N)c(C(=O)N[C@@H]3CCN(C(=O)Oc4cccc(-c5cccc(CN6CCC[C@H](N)C6)c5)c4)C3)c2)cn1 [Example 339, 3′-(((S)-3-aminopiperidin-1-yl)methyl)-[1,1′-biphenyl]-3-yl (R)-3-(2-amino-5-(1-methyl-1H-pyrazol-4-yl)nicotinamido)pyrrolidine-1-carboxylate]	100 to 1000 nM
Cn1cc(-c2cnc(N)c(C(=O)N[C@H]3CN(C(=O)c4ccc(-c5ccccc5)cc4)C[C@@H]3O)c2)cn1 [Example 742, N-((3S,4S)-1-([1,1′-biphenyl]-4-carbonyl)-4-hydroxypyrrolidin-3-yl)-2-amino-5-(1-methyl-1H-pyrazol-4-yl)nicotinamide]	100 to 1000 nM
Cn1cc(-c2cnc(N)c(C(=O)NC3(CO)CCN(C(=O)c4ccc(-c5ccccc5)cc4)C3)c2)cn1 (stereo not drawn) [Example 671, N-(1-([1,1′-biphenyl]-4-carbonyl)-3-(hydroxymethyl)pyrrolidin-3-yl)-2-amino-5-(1-methyl-1H-pyrazol-4-yl)nicotinamide]	10 to 100 nM
CN1CCN(c2cc(-c3cnc(N)c(C(=O)N[C@@H]4CCN(C(=O)c5ccc(-c6ccc(F)cc6Cl)cc5)C4)c3)ccn2)CC1 [Example 780, (R)-6-amino-N-(1-(2′-chloro-4′-fluoro-[1,1′-biphenyl]-4-carbonyl)pyrrolidin-3-yl)-2′-(4-methylpiperazin-1-yl) -[3,4′-bipyridine]-5-carboxamide]	< 10 nM
Cn1cc(-c2cnc(N)c(C(=O)N[C@@H]3CCN(C(=O)Oc4cccc(-c5ccccc5)c4)C3)c2)cn1 [Example 117, [1,1′-biphenyl]-3-yl (R)-3-(2-amino-5-(1-methyl-1H-pyrazol-4-yl)nicotinamido)pyrrolidine-1-carboxylate]	10 to 100 nM
Cn1cc(-c2cnc(N)c(C(=O)N[C@@H]3CCN(C(=O)OC4CCCN(c5ccc(C=O)cc5)C4)C3)c2)cn1 (stereo partly drawn) [Example 123, 1-(4-formylphenyl)piperidin-3-yl (3R)-3-(2-amino-5-(1-methyl-1H-pyrazol-4-yl)nicotinamido)pyrrolidine-1-carboxylate]	> 1000 nM
Nc1ncc(-c2ccc(CN3CCC(O)CC3)cc2)cc1C(=O)N[C@@H]1CCN(C(=O)Nc2cccc(-c3ccccc3)c2)C1 [Example 39, (R)—N-(1-([1,1′-biphenyl]-3-ylcarbamoyl)pyrrolidin-3-yl)-2-amino-5-(4-((4-hydroxypiperidin-1-yl)methyl)phenyl)nicotinamide]	10 to 100 nM
Cn1cc(-c2cnc(N)c(C(=O)N[C@@H]3CCN(C(=O)Nc4ccc(-c5cccc(CN)c5)cc4)C3)c2)cn1 [Example 269, (R)-2-amino-N-(1-((3′-(aminomethyl)-[1,1′-biphenyl]-4-yl)carbamoyl)pyrrolidin-3-yl)-5-(1-methyl-1H-pyrazol-4-yl)nicotinamide]	10 to 100 nM
Cn1cc(-c2cnc3[nH]nc(N[C@@H]4CCN(C(=O)c5ccc(-c6ccc(CN7CCOCC7)cc6)cc5)C4)c3c2)cn1 [Example 793, (R)-(3-((5-(1-methyl-1H-pyrazol-4-yl)-1H-pyrazolo[3,4-b]pyridin-3-yl)amino)pyrrolidin-1-yl)(4′-(morpholinomethyl)-[1,1′-biphenyl]-4-yl)methanone]	100 to 1000 nM
Cn1cc(-c2cnc(N)c(C(=O)N[C@@H]3CCN(C(=O)O[C@H]4CCN(c5ccccc5)C4)C3)c2)cn1 [Example 128, (S)-1-phenylpyrrolidin-3-yl (R)-3-(2-amino-5-(1-methyl-1H-pyrazol-4-yl)nicotinamido)pyrrolidine-1-carboxylate]	100 to 1000 nM
Cn1cc(-c2cnc(N)c(C(=O)N[C@@H]3CCN(C(=O)c4ccc(-c5ccc(S(=O)(=O)N6CCC6)cc5)cc4)C3)c2)cn1 [Example 660, (R)-2-amino-N-(1-(4′-(azetidin-1-ylsulfonyl)-[1,1′-biphenyl]-4-carbonyl)pyrrolidin-3-yl)-5-(1-methyl-1H-pyrazol-4-yl)nicotinamide]	100 to 1000 nM
CC1CC(C)CC(OC(=O)N2CC[C@@H](NC(=O)c3cc(-c4cnn(C)c4)cnc3N)C2)C1 (stereo partly drawn) [Example 79, 3,5-dimethylcyclohexyl (3R)-3-(2-amino-5-(1-methyl-1H-pyrazol-4-yl)nicotinamido)pyrrolidine-1-carboxylate]	> 1000 nM
Cn1cc(-c2cnc(N)c(C(=O)N[C@@H]3CCN(C(=O)Oc4cccc(-c5ccc(CN6CCC(N)CC6)cc5)c4)C3)c2)cn1 [Example 317, 4′-((4-aminopiperidin-1-yl)methyl)-[1,1′-biphenyl]-3-yl (R)-3-(2-amino-5-(1-methyl-1H-pyrazol-4-yl)nicotinamido)pyrrolidine-1-carboxylate]	10 to 100 nM
Nc1ncc(-c2ccc(N3CCOCC3)cc2)cc1C(=O)N[C@@H]1CCN(C(=O)c2ccc(-c3ccccc3)cc2)C1 [Example 557, (R)—N-(1-([1,1′-biphenyl]-4-carbonyl)pyrrolidin-3-yl)-2-amino-5-(4-morpholinophenyl)nicotinamide]	10 to 100 nM
Cn1cc(-c2cnc(N)c(C(=O)N[C@@H]3CCN(Cc4cccc(Oc5ccccc5)c4)C3)c2)cn1 [Example 221, (R)-2-amino-5-(1-methyl-1H-pyrazol-4-yl)-N-(1-(3-phenoxybenzyl)pyrrolidin-3-yl)nicotinamide]	> 1000 nM
Cn1cc(-c2cnc(N)c(C(=O)N[C@H]3CCCN(C(=O)c4ccc(-c5ccccc5)cc4)C3)c2)cn1 [Example 348, (S)—N-(1-([1,1′-biphenyl]-4-carbonyl)piperidin-3-yl)-2-amino-5-(1-methyl-1H-pyrazol-4-yl)nicotinamide]	> 1000 nM
Cn1cc(-c2cnc(N)c(C(=O)N[C@@H]3CCN(C(=O)Oc4cccc(-c5ccc(CN6CCOCC6)cc5)c4)C3)c2)cn1 [Example 335, 4′-(morpholinomethyl)-[1,1′-biphenyl]-3-yl (R)-3-(2-amino-5-(1-methyl-1H-pyrazol-4-yl)nicotinamido)pyrrolidine-1-carboxylate]	100 to 1000 nM

Source: patent US12378224B2 (Dong-A Socio Holdings Co., Ltd., priority 2016, dated 2025)
